Like-named read-outs stand apart in the source and are kept apart here.
Tests used:
[1] = target: T1, glutathione-S-transferase (GST) tagged LXRbeta LBD (ligand binding domain) (Homo sapiens, UniProt P55055); assay: LanthaScreen TR-FRET Liver X Receptor Coactivator Assay, LXR beta; format: biochemical; conditions: for EC50: LXR beta IP, potency (Inflection Point), compound-induced co-activator recruitment, TR-FRET; for Emax: read-out: LXR beta actiivty at max dose, efficacy (% Emax) in relation to reference dual agonist T0901317
T1 construct: purchased Invitrogen pv4658
T1 sequence (P55055 222-460 limits assumed): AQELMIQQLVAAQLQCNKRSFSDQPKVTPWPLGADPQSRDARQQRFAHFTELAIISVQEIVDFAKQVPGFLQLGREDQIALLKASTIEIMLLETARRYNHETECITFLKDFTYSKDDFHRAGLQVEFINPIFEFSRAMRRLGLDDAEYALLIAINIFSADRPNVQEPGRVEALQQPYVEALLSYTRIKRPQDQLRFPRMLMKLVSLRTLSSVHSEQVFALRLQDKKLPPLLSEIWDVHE
Description: (§1) While running the LanthaScreen™ TR-FRET Liver X Receptor Coactivator Assay, LXR alpha-LBD or LXR beta-LBD was added to ligand test compounds followed by addition of a mixture of a fluorescein-labelled coactivator peptide and terbium-conjugated anti-GST antibody. After an incubation period at room temperature, TR-FRET (time-resolved fluorescence resonance energy transfer) was measured using a filter-based instrument capable of TR-FRET, e.g. PerkinElmer Envision.

[2] = target: T2, glutathione-S-transferase (GST) tagged LXRalpha LBD (ligand binding domain) (Homo sapiens, UniProt Q13133); assay: biochemical; conditions: for EC50 / LXR alpha IP: potency (Inflection Point), compound-induced co-activator recruitment, TR-FRET
T2 construct: purchased Invitrogen pv4655
T2 sequence (Q13133 209-447 limits assumed): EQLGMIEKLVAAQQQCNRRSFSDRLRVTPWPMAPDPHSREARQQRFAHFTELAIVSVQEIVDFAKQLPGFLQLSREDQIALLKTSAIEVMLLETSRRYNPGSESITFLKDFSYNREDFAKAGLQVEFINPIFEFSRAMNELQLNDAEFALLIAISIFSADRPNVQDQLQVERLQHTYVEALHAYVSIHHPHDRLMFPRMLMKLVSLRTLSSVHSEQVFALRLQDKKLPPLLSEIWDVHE
Description: as §1

[3] = read-out: LXR alpha actiivty at max dose, efficacy (% Emax) in relation to reference dual agonist T0901317
[4] = efficacy (% Emax) in relation to reference dual agonist T0901317, read-out: LXR alpha actiivty at max dose

EC50 ([2]; LXR alpha IP) | Emax [2, 3] | SMILES | EC50 [1] | Emax [1] | Emax [2, 4] | EC50 ([2]; read-out: LXR alpha IP) | LXR alpha IP [2]
 |  | CN(C)C(=O)c1ccc(OCCCCC2CCN(C(=O)C(O)(c3ccccn3)C(F)(F)F)CC2)nc1Cl (stereo not drawn) [Example 6-1, 2-chloro-N,N-dimethyl-6-(4-(1-(3,3,3-trifluoro-2-hydroxy-2-(pyridin-2-yl)propanoyl)piperidin-4-yl)butoxy)nicotinamide] | 0.029 µM | 73% | 28% | 1.33 µM | 
 |  | CN(C)C(=O)c1ccc(OCC(F)CCC2CCN(C(=O)C(O)(c3ccccc3)C(F)(F)F)CC2)cc1Cl (single isomer, unassigned) [Example 20-1, 2-chloro-4-(2-fluoro-4-(1-((R or S)-3,3,3-trifluoro-2-hydroxy-2-phenylpropanoyl)piperidin-4-yl)butoxy)-N,N-dimethylbenzamide] | 0.08 µM | 72% | 26% | 1.43 µM | 
3.74 µM | 21% | CN(C)C(=O)c1ccc(OCCC2CC23CCN(C(=O)C(C)(C)c2csc(N)n2)CC3)cc1Cl (single isomer, unassigned) [Example 12-10, (R or S)-4-(2-(6-(2-(2-aminothiazol-4-yl)-2-methylpropanoyl)-6-azaspiro[2.5]octan-1-yl)ethoxy)-2-chloro-N,N-dimethylbenzamide] | 0.608 µM | 61% |  |  | 
0.329 µM | 42% | CN(C)C(=O)c1ccc(OCC2CC3(CCN(C(=O)C(O)(c4ccccc4)C(F)(F)F)CC3)C2)cc1Cl (single isomer, unassigned) [Example 33-1, 2-chloro-N,N-dimethyl-4-((7-((R or S)-3,3,3-trifluoro-2-hydroxy-2-phenylpropanoyl)-7-azaspiro[3.5]nonan-2-yl)methoxy)benzamide] | 0.009 µM | 69% |  |  | 
0.589 µM | 39% | CN(C)C(=O)c1ccc(OCCC2CC23CCN(C(=O)C(C)(C)c2ccsc2)CC3)cc1Cl (single isomer, unassigned) [Example 12-7, (R or S)-2-chloro-N,N-dimethyl-4-(2-(6-(2-methyl-2-(thiophen-3-yl)propanoyl)-6-azaspiro[2.5]octan-1-yl)ethoxy)benzamide] | 0.029 µM | 64% |  |  | 
0.166 µM | 35% | CN(C)C(=O)c1ccc(OCC[C@@H]2CC23CCN(C(=O)C2(c4ccccc4Br)CCC2)CC3)cc1Cl (single isomer, unassigned) [Example 12-17, (S or R)-4-(2-(6-(1-(2-bromophenyl)cyclobutanecarbonyl)-6-azaspiro[2.5]octan-1-yl)ethoxy)-2-chloro-N,N-dimethylbenzamide] | 0.009 µM | 79% |  |  | 
0.328 µM | 10% | O=C(c1ccc(OCCCCC2CCN(C(=O)C(O)(c3ccccc3)C(F)(F)F)CC2)cc1Cl)N1CCC1 (single isomer, unassigned) [Example 8-1, (R or S)-1-(4-(4-(4-(azetidine-1-carbonyl)-3-chlorophenoxy)butyl)piperidin-1-yl)-3,3,3-trifluoro-2-hydroxy-2-phenylpropan-1-one] | 0.033 µM | 55% |  |  | 
1.38 µM | 17% | CN(C)C(=O)c1ccc(OC[C@@H]2C[C@H]2C2CCN(C(=O)[C@](O)(c3ccccc3)C(F)(F)C(F)(F)F)CC2)cc1Cl (single isomer, unassigned) [Example 32-3, 2-chloro-N,N-dimethyl-4-(((1R,2S or 1S,2R)-2-(1-((R or S)-3,3,4,4,4-pentafluoro-2-hydroxy-2-phenylbutanoyl)piperidin-4-yl)cyclopropyl)methoxy) benzamide] | 0.105 µM | 125% |  |  | 
 |  | COc1cccc([C@@](O)(C(=O)N2CCC(C[C@@H](C)CCOc3ccc(C(=O)N(C)C)c(Cl)c3)CC2)C(F)(F)F)c1 (single isomer, unassigned) [Example 27-1, 2-chloro-N,N-dimethyl-4-((R or S)-3-methyl-4-(1-((R or S)-3,3,3-trifluoro-2-hydroxy-2-(3-methoxyphenyl)propanoyl)piperidin-4-yl)butoxy)benzamide] | 0.005 µM | 70% | 23% | 0.074 µM | 
 | 1% | CC1(C)CCN(C(=O)c2ccc(OCCCCC3CCN(C(=O)C(O)(c4ccccc4)C(F)(F)F)CC3)cc2Cl)C1 (single isomer, unassigned) [Example 8-5, (R or S)-1-(4-(4-(3-chloro-4-(3,3-dimethyl-pyrrolidine-1-carbonyl)phenoxy)butyl)piperidin-1-yl)-3,3,3-trifluoro-2-hydroxy-2-phenylpropan-1-one] | 0.018 µM | 27% |  |  | No IP
0.653 µM | 27% | O=C(c1ccc(OCCCCC2CCN(C(=O)[C@](O)(c3ccccc3)C(F)(F)F)CC2)cc1Cl)N1CCC[C@@H]1CO (single isomer, unassigned) [Example 8-8, (R or S)-1-(4-(4-(3-chloro-4-((R or S)-2-(hydroxymethyl)pyrrolidine-1-carbonyl)phenoxy)butyl)piperidin-1-yl)-3,3,3-trifluoro-2-hydroxy-2-phenylpropan-1-one] | 0.021 µM | 44% |  |  | 

SMILES | EC50 ([2]; LXR alpha IP) | Emax [2, 3] | EC50 [1] | Emax [1] | Emax [2, 4] | EC50 ([2]; read-out: LXR alpha IP) | LXR alpha IP [2]
CN(C)C(=O)c1ccc(OCCCCC2CCN(C(=O)C(O)(c3ccccc3)C(F)(F)F)CC2)cc1Cl (single isomer, unassigned) [Example 3-8, 2-chloro-N,N-dimethyl-4-(4-(1-(3,3,3-trifluoro-2-hydroxy-2-phenylpropanoyl)piperidin-4-yl)butoxy)benzamide] | 0.173 µM | 30% | 0.005 µM | 85% |  |  | 
CN(C)C(=O)c1ccc(OCCCCC2CCN(C(=O)C(C)(C)c3ccccc3)CC2)cc1Cl [Example 3-6, 2-chloro-N,N-dimethyl-4-(4-(1-(2-methyl-2-phenylpropanoyl)piperidin-4-yl)butoxy)benzamide] |  | 8% | 0.077 µM | 64% |  |  | No IP
CNC(=O)c1ccc(OCCCCC2CCN(C(=O)[C@](O)(c3cccc(OC)c3)C(F)(F)F)CC2)cc1Cl (single isomer, unassigned) [Example 8-18, (R or S)-2-chloro-N-methyl-4-(4-(1-(3,3,3-trifluoro-2-hydroxy-2-(3-methoxyphenyl)propanoyl)piperidin-4-yl)butoxy) benzamide] | 0.742 µM | 31% | 0.014 µM | 91% |  |  | 
COc1cccc([C@](O)(C(=O)N2CCC(CC[C@H](C)COc3ccc(C(=O)N(C)C)c(Cl)c3)CC2)C(F)(F)F)c1 (single isomer, unassigned) [Example 23-2, 2-chloro-N,N-dimethyl-4-((S or R)-2-methyl-4-(1-((S or R)-3,3,3-trifluoro-2-hydroxy-2-(3-methoxyphenyl)propanoyl)piperidin-4-yl)butoxy)benzamide] |  | 0% | 0.019 µM | 53% |  |  | No IP
CNC(=O)c1ccc(OC[C@@H](C)CCC2CCN(C(=O)[C@@](O)(c3cccc(OC)c3)C(F)(F)F)CC2)cc1Cl (single isomer, unassigned) [Example 23-4, 2-chloro-N-methyl-4-((S or R)-2-methyl-4-(1-((S or trifluoro-2-hydroxy-2-(3-methoxyphenyl)propanoyl)piperidin-4-yl)butoxy)benzamide] | 0.717 µM | 9% | 0.06 µM | 53% |  |  | 
CN(C)C(=O)c1ccc(O[C@H]2C[C@@H](CC3CCN(C(=O)[C@](O)(c4cccc(OC5CC5)c4)C(F)(F)F)CC3)C2)cc1Cl (single isomer, unassigned) [Example 37-2, 2-chloro-4-((1R,3s)-3-((1-((R or S)-2-(3-cyclopropoxyphenyl)-3,3,3-trifluoro-2-hydroxypropanoyl)piperidin-4-yl)methyl)cyclobutoxy)-N,N-dimethylbenzamide] |  | 2% | 0.04 µM | 109% |  |  | No IP
CN(C(=O)c1ccc(OCCCCC2CCN(C(=O)[C@](O)(c3ccccc3)C(F)(F)F)CC2)cc1Cl)C1CC1 (single isomer, unassigned) [Example 8-12, (R or S)-2-chloro-N-cyclopropyl-N-methyl-4-(4-(1-(3,3,3-trifluoro-2-hydroxy-2-phenylpropanoyl)piperidin-4-yl)butoxy) benzamide] | 0.351 µM | 7% | 0.016 µM | 64% |  |  | 

Source: patent publication US11655216B2 (priority 2016, dated 2023)
